# In ChEMBL document CHEMBL1128459, “Characterization of potent and selective antagonists at postsynaptic 5-HT1A receptors in a series of N4-substituted arylpiperazines” (J Med Chem, 1995):
# Legend:
# [1] = target: 5-hydroxytryptamine receptor 1A (Rattus norvegicus) (UniProt P19327); test: Ki ratio measured as the Ki values of dopamine receptor to that of 5-hydroxytryptamine 1A receptor receptor.
# [2] = target: 5-hydroxytryptamine receptor 1A (Rattus norvegicus) (UniProt P19327); test: Ki ratio measured as the Ki values of dopamine receptor to that of 5-hydroxytryptamine 1A receptor
# Sequence of 5-hydroxytryptamine receptor 1A (Rattus norvegicus) (P19327 whole entry, looked up): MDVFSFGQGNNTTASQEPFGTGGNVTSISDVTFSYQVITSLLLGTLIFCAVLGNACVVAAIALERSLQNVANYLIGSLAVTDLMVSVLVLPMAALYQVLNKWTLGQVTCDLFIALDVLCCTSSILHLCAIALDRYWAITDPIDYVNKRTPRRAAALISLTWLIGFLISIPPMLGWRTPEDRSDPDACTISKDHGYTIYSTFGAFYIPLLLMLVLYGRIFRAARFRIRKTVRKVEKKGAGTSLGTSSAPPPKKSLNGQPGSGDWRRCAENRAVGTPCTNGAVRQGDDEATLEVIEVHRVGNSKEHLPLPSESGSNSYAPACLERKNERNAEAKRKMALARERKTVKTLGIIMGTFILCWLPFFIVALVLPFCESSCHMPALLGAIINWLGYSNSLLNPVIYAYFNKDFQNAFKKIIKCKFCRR
Structure (SMILES),Ki ratio [1],Ki ratio [2]
c1ccc2c(c1)CC(N1CCN(c3cccc4c3OCCO4)CC1)C2,195,
c1ccc2c(c1)CC(N1CCN(c3cccc4c3OCCCO4)CC1)C2,,51.3
Clc1cccc2c1CC2CCN1CCN(c2cccc3c2OCCO3)CC1 (stereo unspecified),,26.9
COc1ccccc1N1CCN(C[C@@H](C(=O)NC(C)(C)C)c2ccccc2)CC1,12,
COc1cc2c(cc1OC)C(CCN1CCN(c3cccc4c3OCCO4)CC1)CC2 (stereo unspecified),,83.4
c1ccc2c(c1)CC2CCN1CCN(c2cccc3c2OCCO3)CC1 (stereo unspecified),79.4,
